# From ChEMBL document CHEMBL4804286, “3-amino-4-(4-(4 (dimethylcarbamoyl) phenyl)-1,4-diazepan-1-yl) thieno [2,3-b] pyridine-2-carboxamide for use in cancer therapy and formulations comprising the same” (2020)
# “And” between values parts separate entries of the source, which are not always exact repeats. Identical values can stand only once. The source made the active and inactive calls. The rule behind the calls is not given here.
# Experiments:
# [1] = tested on: Tyrosine-protein kinase ABL1 (Homo sapiens), P00519 [F317L]; assay: Inhibition of non-phosphorylated human ABL1 F317L mutant assessed as percent of control at 2000 nM by KINOMEscan assay relative to control; parameters: scale not given: the % may be the effect or the level left
# [2] = target: RAC-beta serine/threonine-protein kinase (Homo sapiens) (UniProt P31751); assay: Inhibition of human AKT2 assessed as percent of control at 2000 nM by KINOMEscan assay relative to control; parameters: scale not given: the % may be the effect or the level left
# Sequence of RAC-beta serine/threonine-protein kinase (Homo sapiens) (P31751 whole entry): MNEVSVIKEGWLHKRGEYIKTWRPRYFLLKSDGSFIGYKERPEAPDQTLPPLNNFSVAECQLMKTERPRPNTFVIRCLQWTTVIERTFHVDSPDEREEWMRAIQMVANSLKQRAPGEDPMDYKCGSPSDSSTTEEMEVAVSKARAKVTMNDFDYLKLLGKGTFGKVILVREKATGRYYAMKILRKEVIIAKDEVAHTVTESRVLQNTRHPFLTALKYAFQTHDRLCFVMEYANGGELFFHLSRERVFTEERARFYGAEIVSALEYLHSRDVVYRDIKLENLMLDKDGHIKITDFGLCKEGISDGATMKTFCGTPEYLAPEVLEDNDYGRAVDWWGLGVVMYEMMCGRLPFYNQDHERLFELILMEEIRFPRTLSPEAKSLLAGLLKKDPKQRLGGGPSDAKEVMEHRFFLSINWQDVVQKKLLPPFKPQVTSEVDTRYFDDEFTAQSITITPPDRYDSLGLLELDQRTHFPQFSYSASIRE
# [3] = target: ALK tyrosine kinase receptor (Homo sapiens) (UniProt Q9UM73); assay: Inhibition of human ALK assessed as percent of control at 2000 nM by KINOMEscan assay relative to control; parameters: scale not given: the % may be the effect or the level left
# [4] = target: Tyrosine-protein kinase receptor UFO (Homo sapiens) (UniProt P30530); assay: Inhibition of human AXL assessed as percent of control at 2000 nM by KINOMEscan assay relative to control; parameters: scale not given: the % may be the effect or the level left
# Sequence of Tyrosine-protein kinase receptor UFO (Homo sapiens) (P30530 whole entry): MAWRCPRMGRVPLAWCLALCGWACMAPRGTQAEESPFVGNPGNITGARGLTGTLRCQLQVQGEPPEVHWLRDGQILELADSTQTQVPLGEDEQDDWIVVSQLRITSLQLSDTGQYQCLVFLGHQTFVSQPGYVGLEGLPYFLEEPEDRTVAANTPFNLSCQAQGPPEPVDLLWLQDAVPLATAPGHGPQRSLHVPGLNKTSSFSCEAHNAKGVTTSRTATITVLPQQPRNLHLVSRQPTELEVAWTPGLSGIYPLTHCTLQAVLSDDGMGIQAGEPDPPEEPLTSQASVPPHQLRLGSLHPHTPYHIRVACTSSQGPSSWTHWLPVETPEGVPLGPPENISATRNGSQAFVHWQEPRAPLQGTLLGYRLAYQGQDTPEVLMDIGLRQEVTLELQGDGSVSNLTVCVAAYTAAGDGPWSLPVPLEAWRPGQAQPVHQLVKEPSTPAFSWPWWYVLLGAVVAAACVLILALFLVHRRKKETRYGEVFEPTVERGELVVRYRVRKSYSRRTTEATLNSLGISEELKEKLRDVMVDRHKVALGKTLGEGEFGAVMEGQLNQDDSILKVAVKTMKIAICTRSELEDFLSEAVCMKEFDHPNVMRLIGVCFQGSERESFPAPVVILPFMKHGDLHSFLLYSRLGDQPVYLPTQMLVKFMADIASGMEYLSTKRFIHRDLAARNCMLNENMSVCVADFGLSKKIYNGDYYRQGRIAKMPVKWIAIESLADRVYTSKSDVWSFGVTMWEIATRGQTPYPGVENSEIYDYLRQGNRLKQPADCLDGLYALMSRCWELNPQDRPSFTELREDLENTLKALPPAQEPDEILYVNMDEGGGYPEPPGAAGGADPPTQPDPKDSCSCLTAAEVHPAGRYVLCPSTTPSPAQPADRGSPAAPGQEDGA
# [5] = target: Tyrosine-protein kinase BTK (Homo sapiens) (UniProt Q06187); assay: Inhibition of human BTK assessed as percent of control at 2000 nM by KINOMEscan assay relative to control; parameters: scale not given: the % may be the effect or the level left
# Sequence of Tyrosine-protein kinase BTK (Homo sapiens) (Q06187 whole entry): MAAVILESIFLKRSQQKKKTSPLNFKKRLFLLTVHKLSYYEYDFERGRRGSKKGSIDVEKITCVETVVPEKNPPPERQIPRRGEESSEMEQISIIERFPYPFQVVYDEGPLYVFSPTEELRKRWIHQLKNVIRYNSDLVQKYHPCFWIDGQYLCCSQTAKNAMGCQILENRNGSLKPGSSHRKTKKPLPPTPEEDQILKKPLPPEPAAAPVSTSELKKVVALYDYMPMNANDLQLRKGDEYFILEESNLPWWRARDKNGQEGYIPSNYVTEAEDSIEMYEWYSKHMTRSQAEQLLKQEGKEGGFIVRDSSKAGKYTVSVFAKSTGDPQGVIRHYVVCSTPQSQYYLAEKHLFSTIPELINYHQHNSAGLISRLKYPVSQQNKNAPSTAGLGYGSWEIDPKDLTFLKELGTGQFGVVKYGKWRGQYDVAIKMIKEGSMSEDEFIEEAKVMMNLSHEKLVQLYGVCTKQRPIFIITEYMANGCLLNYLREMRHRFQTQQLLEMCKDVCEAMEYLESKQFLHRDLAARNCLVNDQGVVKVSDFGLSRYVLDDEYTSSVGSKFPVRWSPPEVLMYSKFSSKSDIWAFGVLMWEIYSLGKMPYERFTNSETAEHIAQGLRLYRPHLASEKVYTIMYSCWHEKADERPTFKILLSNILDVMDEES
# [6] = target: Calcium/calmodulin-dependent protein kinase type IV (Homo sapiens) (UniProt Q16566); assay: Inhibition of human CAMK4 assessed as percent of control at 2000 nM by KINOMEscan assay relative to control; parameters: scale not given: the % may be the effect or the level left
# [7] = target: Cyclin-dependent kinase 3 (Homo sapiens) (UniProt Q00526); assay: Inhibition of human CDK3 assessed as percent of control at 2000 nM by KINOMEscan assay relative to control; parameters: scale not given: the % may be the effect or the level left
# Sequence of Cyclin-dependent kinase 3 (Homo sapiens) (Q00526 whole entry, looked up): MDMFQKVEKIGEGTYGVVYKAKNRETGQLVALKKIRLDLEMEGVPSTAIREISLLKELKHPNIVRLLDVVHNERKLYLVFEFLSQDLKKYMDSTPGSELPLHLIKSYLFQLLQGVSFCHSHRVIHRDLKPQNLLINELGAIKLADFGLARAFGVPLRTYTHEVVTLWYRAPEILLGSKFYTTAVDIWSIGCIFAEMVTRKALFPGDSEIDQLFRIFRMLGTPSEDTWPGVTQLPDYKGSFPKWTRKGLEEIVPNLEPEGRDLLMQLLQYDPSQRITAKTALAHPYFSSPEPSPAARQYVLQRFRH
# [8] = target: Cyclin-dependent kinase 5 (Homo sapiens) (UniProt Q00535); assay: Inhibition of human CDK5 assessed as percent of control at 2000 nM by KINOMEscan assay relative to control; parameters: scale not given: the % may be the effect or the level left
# Sequence of Cyclin-dependent kinase 5 (Homo sapiens) (Q00535 whole entry, looked up): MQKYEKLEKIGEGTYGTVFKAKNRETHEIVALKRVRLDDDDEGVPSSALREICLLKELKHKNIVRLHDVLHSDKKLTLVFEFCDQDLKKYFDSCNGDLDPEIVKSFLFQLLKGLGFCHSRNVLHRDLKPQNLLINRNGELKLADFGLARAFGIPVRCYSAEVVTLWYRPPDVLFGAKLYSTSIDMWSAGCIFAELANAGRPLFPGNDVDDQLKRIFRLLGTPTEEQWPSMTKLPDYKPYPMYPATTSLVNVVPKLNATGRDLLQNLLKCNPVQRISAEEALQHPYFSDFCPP
# [9] = tested on: Epidermal growth factor receptor (Homo sapiens), P00533 [UNDEFINED MUTATION]; assay: Inhibition of human EGFR E746-A750del mutant assessed as percent of control at 2000 nM by KINOMEscan assay relative to control; parameters: scale not given: the % may be the effect or the level left
# [10] = target: Mitogen-activated protein kinase 6 (Homo sapiens) (UniProt Q16659); assay: Inhibition of human ERK3 assessed as percent of control at 2000 nM by KINOMEscan assay relative to control; parameters: scale not given: the % may be the effect or the level left
# [11] = tested on: Receptor-type tyrosine-protein kinase FLT3 (Homo sapiens), P36888 [D835H]; assay: Inhibition of human FLT3 D835H mutant assessed as percent of control at 2000 nM by KINOMEscan assay relative to control; parameters: scale not given: the % may be the effect or the level left
# [12] = target: Mitogen-activated protein kinase kinase kinase kinase 1 (Homo sapiens) (UniProt Q92918); assay: Inhibition of human HPK1 assessed as percent of control at 2000 nM by KINOMEscan assay relative to control; parameters: scale not given: the % may be the effect or the level left
# [13] = target: Inhibitor of nuclear factor kappa-B kinase subunit beta (Homo sapiens) (UniProt O14920); assay: Inhibition of human IKK-beta assessed as percent of control at 2000 nM by KINOMEscan assay relative to control; parameters: scale not given: the % may be the effect or the level left
# [14] = tested on: Mast/stem cell growth factor receptor Kit (Homo sapiens), P10721 [L576P]; assay: Inhibition of human KIT L576P mutant assessed as percent of control at 2000 nM by KINOMEscan assay relative to control; parameters: scale not given: the % may be the effect or the level left
# [15] = tested on: Mast/stem cell growth factor receptor Kit (Homo sapiens), P10721 [V559D]; assay: Inhibition of human KIT V559D mutant assessed as percent of control at 2000 nM by KINOMEscan assay relative to control; parameters: scale not given: the % may be the effect or the level left
# [16] = target: Mast/stem cell growth factor receptor Kit (Homo sapiens) (UniProt P10721); assay: Inhibition of human autoinhibited KIT assessed as percent of control at 2000 nM by KINOMEscan assay relative to control; parameters: scale not given: the % may be the effect or the level left
# Sequence of Mast/stem cell growth factor receptor Kit (Homo sapiens) (P10721 whole entry): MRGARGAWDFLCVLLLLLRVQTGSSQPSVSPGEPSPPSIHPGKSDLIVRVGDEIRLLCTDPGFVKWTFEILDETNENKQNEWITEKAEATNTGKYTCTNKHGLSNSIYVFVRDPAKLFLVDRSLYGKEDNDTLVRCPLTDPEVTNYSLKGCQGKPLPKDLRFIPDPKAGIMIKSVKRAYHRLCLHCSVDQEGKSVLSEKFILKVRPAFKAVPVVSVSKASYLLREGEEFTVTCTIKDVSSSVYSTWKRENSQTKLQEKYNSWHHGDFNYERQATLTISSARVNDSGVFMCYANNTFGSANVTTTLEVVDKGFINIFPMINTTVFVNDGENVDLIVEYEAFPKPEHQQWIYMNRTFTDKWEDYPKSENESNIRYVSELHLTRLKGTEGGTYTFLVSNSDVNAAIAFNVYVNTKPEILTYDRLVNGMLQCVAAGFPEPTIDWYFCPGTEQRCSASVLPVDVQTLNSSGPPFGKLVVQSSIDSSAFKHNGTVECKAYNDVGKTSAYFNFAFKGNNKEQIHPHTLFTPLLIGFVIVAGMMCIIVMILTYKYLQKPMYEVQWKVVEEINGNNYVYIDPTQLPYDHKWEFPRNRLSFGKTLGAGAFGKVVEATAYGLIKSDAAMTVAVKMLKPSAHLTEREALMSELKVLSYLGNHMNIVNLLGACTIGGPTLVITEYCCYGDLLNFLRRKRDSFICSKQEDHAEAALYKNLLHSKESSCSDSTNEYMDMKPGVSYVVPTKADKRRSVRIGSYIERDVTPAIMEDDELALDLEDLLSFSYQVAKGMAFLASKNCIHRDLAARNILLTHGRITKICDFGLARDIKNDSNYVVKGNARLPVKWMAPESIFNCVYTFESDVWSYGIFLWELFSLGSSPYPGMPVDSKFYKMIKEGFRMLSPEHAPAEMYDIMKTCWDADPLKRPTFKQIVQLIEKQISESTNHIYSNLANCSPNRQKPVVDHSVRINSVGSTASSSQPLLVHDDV
# [17] = target: Leucine-rich repeat serine/threonine-protein kinase 2 (Homo sapiens) (UniProt Q5S007); assay: Inhibition of human LRRK2 assessed as percent of control at 2000 nM by KINOMEscan assay relative to control; parameters: scale not given: the % may be the effect or the level left
# [18] = target: MAP kinase-interacting serine/threonine-protein kinase 2 (Homo sapiens) (UniProt Q9HBH9); assay: Inhibition of human MKNK2 assessed as percent of control at 2000 nM by KINOMEscan assay relative to control; parameters: scale not given: the % may be the effect or the level left
# [19] = target: Serine/threonine-protein kinase MRCK alpha (Homo sapiens) (UniProt Q5VT25); assay: Inhibition of human MRCKA assessed as percent of control at 2000 nM by KINOMEscan assay relative to control; parameters: scale not given: the % may be the effect or the level left
# [20] = tested on: Phosphatidylinositol 4,5-bisphosphate 3-kinase catalytic subunit alpha isoform (Homo sapiens), P42336 [M1043I]; assay: Inhibition of human PIK3CA M1043I mutant assessed as percent of control at 2000 nM by KINOMEscan assay relative to control; parameters: scale not given: the % may be the effect or the level left
# [21] = target: cAMP-dependent protein kinase catalytic subunit beta (Homo sapiens) (UniProt P22694); assay: Inhibition of human PKAC-beta assessed as percent of control at 2000 nM by KINOMEscan assay relative to control; parameters: scale not given: the % may be the effect or the level left
# [22] = target: Membrane-associated tyrosine- and threonine-specific cdc2-inhibitory kinase (Homo sapiens) (UniProt Q99640); assay: Inhibition of human PKMYT1 assessed as percent of control at 2000 nM by KINOMEscan assay relative to control; parameters: scale not given: the % may be the effect or the level left
# [23] = target: Serine/threonine-protein kinase PLK2 (Homo sapiens) (UniProt Q9NYY3); assay: Inhibition of human PLK2 assessed as percent of control at 2000 nM by KINOMEscan assay relative to control; parameters: scale not given: the % may be the effect or the level left
# [24] = target: Protein kinase C epsilon type (Homo sapiens) (UniProt Q02156); assay: Inhibition of human PRKCE assessed as percent of control at 2000 nM by KINOMEscan assay relative to control; parameters: scale not given: the % may be the effect or the level left
# [25] = target: Interferon-induced, double-stranded RNA-activated protein kinase (Homo sapiens) (UniProt P19525); assay: Inhibition of human PRKR assessed as percent of control at 2000 nM by KINOMEscan assay relative to control; parameters: scale not given: the % may be the effect or the level left
# [26] = target: Ribosomal protein S6 kinase alpha-2 (Homo sapiens) (UniProt Q15349); assay: Inhibition of human N-terminal RSK3 kinase domain 1 assessed as percent of control at 2000 nM by KINOMEscan assay relative to control; parameters: scale not given: the % may be the effect or the level left
# Sequence of Ribosomal protein S6 kinase alpha-2 (Homo sapiens) (Q15349 whole entry, the tested form may be a part): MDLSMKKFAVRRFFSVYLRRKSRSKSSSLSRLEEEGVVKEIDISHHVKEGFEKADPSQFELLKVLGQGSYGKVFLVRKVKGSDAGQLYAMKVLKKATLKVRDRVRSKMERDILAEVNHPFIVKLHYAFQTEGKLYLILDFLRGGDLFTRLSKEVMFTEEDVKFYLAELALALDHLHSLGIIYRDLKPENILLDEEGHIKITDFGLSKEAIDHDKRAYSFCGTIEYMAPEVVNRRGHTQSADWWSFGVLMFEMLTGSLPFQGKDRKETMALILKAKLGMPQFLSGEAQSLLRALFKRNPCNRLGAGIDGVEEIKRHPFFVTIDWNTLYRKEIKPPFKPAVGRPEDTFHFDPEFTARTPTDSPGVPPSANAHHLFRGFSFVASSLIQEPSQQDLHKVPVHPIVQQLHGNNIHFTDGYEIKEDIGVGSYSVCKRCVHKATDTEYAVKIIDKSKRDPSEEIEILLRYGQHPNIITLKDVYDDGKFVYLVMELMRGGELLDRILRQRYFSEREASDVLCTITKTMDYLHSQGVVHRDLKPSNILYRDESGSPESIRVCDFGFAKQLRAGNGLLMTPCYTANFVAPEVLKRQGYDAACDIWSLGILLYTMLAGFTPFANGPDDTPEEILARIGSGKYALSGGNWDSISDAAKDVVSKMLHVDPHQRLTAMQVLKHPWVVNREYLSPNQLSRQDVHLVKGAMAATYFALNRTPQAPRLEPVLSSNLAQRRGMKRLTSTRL
# [27] = target: Ribosomal protein S6 kinase alpha-2 (Homo sapiens) (UniProt Q15349); assay: Inhibition of human C-terminal RSK3 kinase domain 2 assessed as percent of control at 2000 nM by KINOMEscan assay relative to control; parameters: scale not given: the % may be the effect or the level left
# [28] = target: Proto-oncogene tyrosine-protein kinase Src (Homo sapiens) (UniProt P12931); assay: Inhibition of human SRC assessed as percent of control at 2000 nM by KINOMEscan assay relative to control; parameters: scale not given: the % may be the effect or the level left
# [29] = target: Dual specificity testis-specific protein kinase 1 (Homo sapiens) (UniProt Q15569); assay: Inhibition of human TESK1 assessed as percent of control at 2000 nM by KINOMEscan assay relative to control; parameters: scale not given: the % may be the effect or the level left
# Sequence of Dual specificity testis-specific protein kinase 1 (Homo sapiens) (Q15569 whole entry, looked up): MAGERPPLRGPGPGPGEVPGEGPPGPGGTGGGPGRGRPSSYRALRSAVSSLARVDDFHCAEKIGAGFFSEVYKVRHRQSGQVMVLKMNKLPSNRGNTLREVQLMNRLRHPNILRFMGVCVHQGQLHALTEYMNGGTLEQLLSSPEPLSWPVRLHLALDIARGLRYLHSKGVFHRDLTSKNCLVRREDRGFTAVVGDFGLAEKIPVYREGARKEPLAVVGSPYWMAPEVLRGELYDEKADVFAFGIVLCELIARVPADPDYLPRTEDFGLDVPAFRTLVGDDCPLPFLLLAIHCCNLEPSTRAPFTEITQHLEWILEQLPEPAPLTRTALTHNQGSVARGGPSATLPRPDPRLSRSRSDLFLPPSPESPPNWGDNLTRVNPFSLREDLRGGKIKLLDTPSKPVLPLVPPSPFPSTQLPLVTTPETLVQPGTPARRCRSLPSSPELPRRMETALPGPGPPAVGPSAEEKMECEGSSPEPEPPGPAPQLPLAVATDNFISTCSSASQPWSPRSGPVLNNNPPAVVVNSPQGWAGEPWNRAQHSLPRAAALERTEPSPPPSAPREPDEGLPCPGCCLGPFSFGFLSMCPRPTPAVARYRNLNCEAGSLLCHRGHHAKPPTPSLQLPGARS
# [30] = target: Wee1-like protein kinase (Homo sapiens) (UniProt P30291); assay: Inhibition of human WEE1 assessed as percent of control at 2000 nM by KINOMEscan assay relative to control; parameters: scale not given: the % may be the effect or the level left
# Myc-CaP = assay: Antiproliferative activity against murine castration-resistant Myc-CaP cells at 1 uM assessed as growth inhibition relative to control; format: functional; conditions: Mus musculus
compound,measurement,setting,value
CN(C)C(=O)c1ccc(N2CCCN(c3ccnc4sc(C(N)=O)c(N)c34)CC2)cc1,Activity,[1],99% and 100%
same,Activity,[2],86% and 99%
same,Activity,[3],81% and 78%
same,Activity,[4],99% and 96%
same,Activity,[5],81% and 77%
same,Activity,[6],96% and 79%
same,Activity,[7],92% and 97%
same,Activity,[8],84% and 94%
same,Activity,[9],100%
same,Activity,[10],88% and 94%
same,Activity,[11],63% and 76%
same,Activity,[12],98% and 100%
same,Activity,[13],89% and 71%
same,Activity,[14],96% and 75%
same,Activity,[15],98% and 91%
same,Activity,[16],90%
same,Activity,[17],94% and 70%
same,Activity,[18],83% and 69%
same,Activity,[19],94% and 100%
same,Activity,[20],96% and 95%
same,Activity,[21],83% and 100%
same,Activity,[22],91% and 94%
same,Activity,[23],100% and 86%
same,Activity,[24],93% and 97%
same,Activity,[25],100%
same,Activity,[26],99% and 77%
same,Activity,[27],100% and 89%
same,Activity,[28],100% and 96%
same,Activity,[29],83% and 100%
same,Activity,[30],100% and 88%
same,Activity,Myc-CaP,Active
